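Exposure lasted 48 hours, with cells grown in 96-well plates and compounds tested at five concentrations. GI50 marks 50% less growth. TGI: concentration producing complete growth inhibition.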

Here are results for 12 molecules from PubChem BioAssay (NCI).

Test systems include A498 renal; CAKI-1 renal; CCRF-CEM leukemia; COLO 205 colon; M14 melanoma; NCI-H460 lung; OVCAR-8 ovarian; SF-268 CNS; TK-10 renal; SR leukemia.
Assay in all cases: NCI-60 cell line screen, 48 h

As for `N#CC1CCCCCCCCCCC(=O)N(CCCl)C1=O` (configuration not stated), the TGI with A498 renal, in the test with CAKI-1 renal, with CCRF-CEM leukemia, with COLO 205 colon, in the test on M14 melanoma and with NCI-H460 lung was more than 100 µM throughout. The TGI in the test on OVCAR-8 ovarian, in the test on SF-268 CNS and in the test on TK-10 renal was more than 100 µM throughout.
Turning to `Cc1ccc(Cl)cc1NC(=O)c1sc2nc3c(cc2c1N)C(=O)CCC3`, the GI50 in the test with A498 renal is 1.86 µM; with CAKI-1 renal, 3.33 µM; in the test on COLO 205 colon it was 4.41 µM; with M14 melanoma it was 6.31 µM; with NCI-H460 lung, 3.73 µM; with OVCAR-8 ovarian, more than 100 µM. In addition, the GI50 in the test on SF-268 CNS is more than 100 µM; in the test on TK-10 renal, 8.99 µM. Further, the TGI with A498 renal, in the test with CAKI-1 renal, in the test on COLO 205 colon, in the test on M14 melanoma, in the test with NCI-H460 lung and in the test with OVCAR-8 ovarian was more than 100 µM each time. For the same molecule, the TGI in the test on SF-268 CNS and in the test on TK-10 renal was more than 100 µM in each case.
As to `NC(N)=NS(=O)(=O)c1ccc(NCCc2c3ccccc3nc3ccccc23)cc1`, the TGI in the test on CAKI-1 renal, in the test with CCRF-CEM leukemia, in the test with COLO 205 colon, with M14 melanoma, with NCI-H460 lung and in the test on OVCAR-8 ovarian was more than 100 µM each time. The TGI in the test on SF-268 CNS, in the test on SR leukemia and in the test with TK-10 renal was more than 100 µM throughout.
With `CC(=O)OCC1OC(n2c(-c3ccc(C)cc3)cc(-c3ccccc3)c(C#N)c2=O)C(OC(C)=O)C(OC(C)=O)C1OC(C)=O` (configuration not stated), the TGI in the test on CAKI-1 renal, in the test on CCRF-CEM leukemia, in the test on COLO 205 colon, in the test on M14 melanoma, in the test with NCI-H460 lung and in the test with OVCAR-8 ovarian was more than 100 µM each time. Also, the TGI in the test with SF-268 CNS and in the test on TK-10 renal was more than 100 µM each time.
With `O=C1c2ccccc2-c2c1c1ccccc1c(=O)n2CCCn1ccnc1`, the GI50 is 2.74 µM with A498 renal; 0.443 µM in the test on CAKI-1 renal; 1.51 µM in the test with CCRF-CEM leukemia; 5.41 µM with COLO 205 colon; 5.71 µM in the test with M14 melanoma; 1.17 µM in the test with NCI-H460 lung. For the same molecule, the GI50 in the test on OVCAR-8 ovarian is 0.87 µM; in the test with SF-268 CNS, 3.64 µM; with TK-10 renal, 1.97 µM. Further, the TGI with A498 renal is 14.1 µM; in the test with CAKI-1 renal, 2.05 µM; in the test on CCRF-CEM leukemia, more than 100 µM; with COLO 205 colon, more than 100 µM; in the test with M14 melanoma it was more than 100 µM; with NCI-H460 lung it was 10.4 µM. Further, the results for the TGI with OVCAR-8 ovarian, with SF-268 CNS and with TK-10 renal were 2.39 µM, more than 100 µM and 6.83 µM, respectively.
`O=C(c1ccccc1)c1cn(/N=C\c2ccccc2)c(=O)nc1-c1ccccc1`: the TGI in the test with A498 renal, in the test with CCRF-CEM leukemia, in the test with COLO 205 colon, with M14 melanoma, in the test with NCI-H460 lung and in the test on OVCAR-8 ovarian was more than 100 µM throughout. The TGI with SF-268 CNS and with TK-10 renal was more than 100 µM throughout.
On to `CCOc1ccc2nc(NC(=O)C(=O)C(c3cnc4ccccc4n3)[N+](=O)[O-])sc2c1` (configuration not stated), for which the TGI in the test with A498 renal, with CAKI-1 renal, in the test on CCRF-CEM leukemia, in the test on M14 melanoma, with NCI-H460 lung and in the test with OVCAR-8 ovarian was more than 100 µM throughout. The TGI in the test with SF-268 CNS and in the test on TK-10 renal was more than 100 µM each time.
Consider `NC(N)=NS(=O)(=O)c1ccc(Nc2c3ccccc3nc3c(C(=O)Nc4ccc(S(N)(=O)=O)cc4)cccc23)cc1`, for which the TGI in the test on A498 renal, with CAKI-1 renal, in the test with CCRF-CEM leukemia, in the test on COLO 205 colon, with M14 melanoma and in the test with NCI-H460 lung was more than 100 µM in each case. Also, the TGI with OVCAR-8 ovarian, in the test on SF-268 CNS and with TK-10 renal was more than 100 µM in each case.
Take `COc1cc2c(cc1OC)/C(=C\c1ccccc1N)C(=O)OC2`: the TGI was determined as 27.1 µM with CAKI-1 renal; 7.06 µM with CCRF-CEM leukemia; 28.8 µM in the test with COLO 205 colon; 55.4 µM in the test on M14 melanoma; 33.5 µM with NCI-H460 lung; 75.4 µM with SF-268 CNS. The TGI in the test with TK-10 renal was determined as 35.2 µM.
`CC(C)=CC1=C2C3=C(C(=O)C4(O)Oc5c(C)c6c7c(c5OC24C)[C@@H](C)CC[C@@H]7[C@@H](C)C[C@H]6C=C(C)C)C(C)CCC3C(C)C1` (some centres not stated): the GI50 in the test on CAKI-1 renal, with CCRF-CEM leukemia, in the test with COLO 205 colon, in the test with M14 melanoma, in the test with NCI-H460 lung and with OVCAR-8 ovarian was more than 100 µM each time. Also, the GI50 in the test with SF-268 CNS, with SR leukemia and in the test with TK-10 renal was more than 100 µM throughout. Moreover, the TGI in the test with CAKI-1 renal, in the test with CCRF-CEM leukemia, in the test with COLO 205 colon, in the test on M14 melanoma, in the test with NCI-H460 lung and in the test on OVCAR-8 ovarian was more than 100 µM in each case. Moreover, the TGI in the test with SF-268 CNS, with SR leukemia and in the test with TK-10 renal was more than 100 µM throughout.
Regarding `Clc1ccc(C(n2cc(Br)cn2)n2cc(Br)cn2)cc1`, the TGI in the test with A498 renal worked out at 33.1 µM; in the test on CAKI-1 renal, 23.4 µM; with CCRF-CEM leukemia it was 60.9 µM; with COLO 205 colon, 33.8 µM; in the test with M14 melanoma, 35.2 µM; with NCI-H460 lung, 33.7 µM. The TGI in the test on OVCAR-8 ovarian is 36.5 µM; in the test on SF-268 CNS, 33.4 µM; in the test on TK-10 renal, 32 µM.
On to `COC(C)(C)C/C=C/C(C)=C/C=C/C(C)=C\C=C\C(C)=C\C=C\C=C(C)\C=C\C=C(C)\C=C\C=C(C)\C=C\CC(C)(C)OC`, for which the GI50 in the test with A498 renal, in the test with CAKI-1 renal, with CCRF-CEM leukemia, in the test on COLO 205 colon, with M14 melanoma and in the test on NCI-H460 lung was more than 150 µg/mL each time. Also, the GI50 in the test with OVCAR-8 ovarian, in the test with SF-268 CNS and in the test on TK-10 renal was more than 150 µg/mL each time. Moreover, the TGI in the test on A498 renal, in the test on CAKI-1 renal, with CCRF-CEM leukemia, in the test with COLO 205 colon, in the test on M14 melanoma and in the test with NCI-H460 lung was more than 150 µg/mL each time. For the same molecule, the TGI with OVCAR-8 ovarian, in the test with SF-268 CNS and in the test on TK-10 renal was more than 150 µg/mL each time.
